Target: T1, BTK-GFP (Homo sapiens, UniProt Q06187+Q96SW2)
T1 construct: expressed in transfected cells; host or cells: HEK293A (Invitrogen R70507), lentiviral transduction with pLenti6-BTK-GFP-Ires-RFP, blasticidin selection
Assay: BTK-GFP protein abundance flow cytometry assay in HEK293A cells
Format: cell-based
Details: HEK293A BTK-GFP-iresRFP cells, 24 h; for DC50: GFP signal by flow cytometry, concentration at which 50% maximal degradation was observed; for BTK deg Amax: % protein remaining at the concentration at which maximum degradation is seen
Outline: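 HEK293A cells stably expressing bicistronic BTK-GFP-IRES-RFP (C-terminal GFP tag) via lentiviral vector. Degradation read by flow cytometry as loss of GFP signal after degrader treatment. DC50 is concentration giving 50% maximal degradation; Amax is % protein remaining at maximal degradation.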

T1 sequence (Q06187 whole entry): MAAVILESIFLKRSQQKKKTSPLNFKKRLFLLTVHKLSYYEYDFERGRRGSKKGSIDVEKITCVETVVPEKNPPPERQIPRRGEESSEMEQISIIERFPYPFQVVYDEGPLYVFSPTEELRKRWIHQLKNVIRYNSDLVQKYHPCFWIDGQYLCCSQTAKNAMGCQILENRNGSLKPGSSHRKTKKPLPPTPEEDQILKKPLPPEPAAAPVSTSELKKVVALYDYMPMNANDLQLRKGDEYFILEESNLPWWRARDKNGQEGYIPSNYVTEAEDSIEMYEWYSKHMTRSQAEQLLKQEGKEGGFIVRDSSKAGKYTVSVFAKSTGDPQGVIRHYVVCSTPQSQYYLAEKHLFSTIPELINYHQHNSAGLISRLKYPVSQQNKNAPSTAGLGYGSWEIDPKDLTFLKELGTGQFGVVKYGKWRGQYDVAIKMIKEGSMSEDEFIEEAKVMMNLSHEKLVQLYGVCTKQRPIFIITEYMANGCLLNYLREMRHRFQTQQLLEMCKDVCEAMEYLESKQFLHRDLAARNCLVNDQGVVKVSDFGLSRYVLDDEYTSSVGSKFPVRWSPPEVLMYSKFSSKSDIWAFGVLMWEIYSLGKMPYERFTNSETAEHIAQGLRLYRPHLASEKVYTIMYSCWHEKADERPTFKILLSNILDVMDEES
T1 sequence (Q96SW2 whole entry): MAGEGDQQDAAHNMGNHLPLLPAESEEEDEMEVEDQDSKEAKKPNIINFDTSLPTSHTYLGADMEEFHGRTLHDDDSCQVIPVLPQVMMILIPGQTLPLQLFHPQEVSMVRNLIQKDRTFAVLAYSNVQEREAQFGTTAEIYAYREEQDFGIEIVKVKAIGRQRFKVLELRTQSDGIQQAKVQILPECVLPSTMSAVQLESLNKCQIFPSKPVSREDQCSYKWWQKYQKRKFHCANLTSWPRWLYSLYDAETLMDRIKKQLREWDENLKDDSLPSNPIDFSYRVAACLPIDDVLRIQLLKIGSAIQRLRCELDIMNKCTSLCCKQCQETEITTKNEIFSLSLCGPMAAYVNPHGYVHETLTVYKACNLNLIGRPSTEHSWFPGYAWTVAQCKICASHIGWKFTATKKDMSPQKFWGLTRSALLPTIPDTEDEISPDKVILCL
T1 sequence (Q16531 whole entry partner): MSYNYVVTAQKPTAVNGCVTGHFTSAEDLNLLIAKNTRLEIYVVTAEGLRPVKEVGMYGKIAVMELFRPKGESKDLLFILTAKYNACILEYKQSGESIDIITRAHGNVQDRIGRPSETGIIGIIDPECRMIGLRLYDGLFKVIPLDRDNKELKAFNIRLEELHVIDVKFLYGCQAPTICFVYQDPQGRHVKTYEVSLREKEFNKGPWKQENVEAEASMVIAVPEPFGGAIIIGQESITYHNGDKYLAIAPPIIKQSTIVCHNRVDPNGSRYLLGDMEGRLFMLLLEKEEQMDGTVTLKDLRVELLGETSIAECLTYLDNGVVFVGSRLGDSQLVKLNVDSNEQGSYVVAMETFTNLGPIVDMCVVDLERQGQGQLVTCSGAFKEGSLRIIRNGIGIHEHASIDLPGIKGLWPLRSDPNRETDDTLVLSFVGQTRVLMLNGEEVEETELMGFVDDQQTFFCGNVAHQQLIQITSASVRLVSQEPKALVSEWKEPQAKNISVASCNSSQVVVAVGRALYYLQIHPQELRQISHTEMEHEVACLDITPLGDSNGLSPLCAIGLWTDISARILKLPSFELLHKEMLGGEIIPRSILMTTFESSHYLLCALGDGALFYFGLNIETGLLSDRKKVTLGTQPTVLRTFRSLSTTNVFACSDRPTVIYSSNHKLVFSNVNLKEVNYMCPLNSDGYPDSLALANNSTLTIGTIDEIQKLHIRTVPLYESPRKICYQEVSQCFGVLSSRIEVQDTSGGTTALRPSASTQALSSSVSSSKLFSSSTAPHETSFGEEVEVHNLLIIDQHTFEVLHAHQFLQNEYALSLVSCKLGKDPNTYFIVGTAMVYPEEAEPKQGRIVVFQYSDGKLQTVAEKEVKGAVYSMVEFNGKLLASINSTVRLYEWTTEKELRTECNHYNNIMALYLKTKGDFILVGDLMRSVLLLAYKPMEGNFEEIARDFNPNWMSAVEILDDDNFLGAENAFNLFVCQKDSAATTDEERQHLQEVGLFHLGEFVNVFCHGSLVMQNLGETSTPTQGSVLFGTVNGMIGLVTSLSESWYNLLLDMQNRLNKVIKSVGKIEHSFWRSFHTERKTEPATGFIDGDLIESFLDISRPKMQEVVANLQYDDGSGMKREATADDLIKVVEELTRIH

| DC50 | BTK deg Amax | Compound |
| --- | --- | --- |
| 0.7 nM | 4.1% | Cc1c(NC(=O)c2ccc(C(C)(C)O)cc2F)cc(F)cc1-c1ncnc2[nH]c(-c3ccc(COC4CCN(CCC5CCN(C(=O)c6ccc(F)c(N7CCC(=O)NC7=O)c6)CC5)CC4)cc3)cc12 [Compound 6, N-(3-(6-(4-(((1-(2(1-(3-(2,4-dioxotetrahydropyrimidin-1(2H)-yl)-4-fluorobenzoyl)piperidin-4-yl)ethyl)piperidin-4-yl)oxyl)methyl)phenyl)-7H-pyrrolo[2,3-d]pyrimidin-4-yl)-5-fluoro-2-methylphenyl)-2-fluoro-4-(2-hydroxypropan-2-yl)benzamide] |
| 2 nM | 1.1% | COc1ccc(C(=O)N2CCC3(CC2)CCN(C(C)(C)Cc2ccc(-c4cc5c(-c6cc(F)cc(NC(=O)c7ccc(C(C)(C)O)cc7F)c6C)ncnc5[nH]4)cc2)CC3)cc1N1CCC(=O)NC1=O [Compound 20, N-(3-(6-(4-(2-(9-(3-(2,4-Dioxotetrahydropyrimidin-1(2H)-yl)-4-methoxybenzoyl)-3,9-diazaspiro[5.5]undecan-3-yl)-2-methylpropyl)phenyl)-7H-pyrrolo[2,3-d]pyrimidin-4-yl)-5-fluoro-2-methylphenyl)-2-fluoro-4-(2-hydroxypropan-2-yl)benzamide] |
| 2.5 nM | 3.4% | COc1ccc(C(=O)N2CCC3(CCN(CCc4ccc(-c5cc6c(-c7cc(F)cc(NC(=O)c8ccc(C(C)(C)O)cc8F)c7C)ncnc6[nH]5)cc4)CC3)CC2)cc1N1CCC(=O)NC1=O [Compound 31, N-(3-(6-(4-(2-(9-(3-(2,4-Dioxotetrahydropyrimidin-1(2H)-yl)-4-methoxybenzoyl)-3,9-diazaspiro[5.5]undecan-3-yl)ethyl)phenyl)-7H-pyrrolo[2,3-d]pyrimidin-4-yl)-5-fluoro-2-methylphenyl)-2-fluoro-4-(2-hydroxypropan-2-yl)benzamide] |

— patent US12441733B2, “Substituted 2,4-dioxotetrahydropyrimidines as intermediates in the synthesis of bruton's tyrosine kinase inhibitors” (Novartis AG, priority 2018, dated 2025)
